The values that follow come from patent publication US9309242B2, “Substituted pyrido[2,3-b]pyrazines as FGFR kinase inhibitors” (priority 2011, dated 2016).

A value given as a limit tells only on which side of the number the result lay.

The target in test [1] is T1, Ba/F3-FGFR1-transfected cells (Homo sapiens, UniProt P11362).
T1 construct: BAF3-FGFR1 (MIN IL3) pIC50; other: minus IL3
Briefly: Ba/F3-FGFR1 (minus IL3) cellular proliferation assay, Alamar Blue. The class given is cell-based. The method, boiled down: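 Viability was measured by resazurin reduction (fluorescence, 540 nm excitation/590 nm emission) after a 4 h Alamar Blue incubation. This followed 24 h of compound treatment at 37 °C, 5% CO2, of 20000 FGFR1-transfected Ba/F3 cells per well in 10% FBS RPMI-1640.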
(The colour change of resazurin is a common sign of viable cells or microbes.)

The test system of test [2] is Ba/F3-FGFR1-transfected cells. Briefly: Ba/F3-FGFR1 (plus IL3) cellular proliferation assay, counterscreen with 10 ng/ml murine IL3. The class given is cell-based. Particulars: plus IL3 (10 ng/ml murine IL3, counterscreen); read-out: BAF3-FGFR1 (PLUS IL3) pIC50 (converted). The essentials: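 Proliferation read-out: resazurin-based Alamar Blue fluorescence (540/590 nm) after 4 h, following 24 h compound treatment of 20000 Ba/F3-FGFR1 cells per well in 10% FBS RPMI at 37° C. IL3 counterscreen used the same protocol plus 10 ng/ml murine IL3.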
(Counterscreens check selectivity or assay interference.)

For test [3], the target named is FGFR2 (h) (Homo sapiens, UniProt P21802). Briefly: FGFR2 (enzymatic assay), TR-FRET. In kind it is biochemical. The settings on record: enzymatic assay; read-out: FGFR 2 pIC50 (converted). The method, boiled down: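 At low ATP (0.4 μM), enzyme activity of human FGFR2 (150 ng/ml) toward biotinylated Flt3 substrate (500 nM) was followed with test compound present. Reactions ran in 50 mM HEPES pH 7.5, 6 mM MnCl2, 1 mM DTT, 0.1 mM Na3VO4, 0.01% Triton-X-100, 1% DMSO.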
(In general: TR-FRET usually uses a lanthanide donor and a delayed reading to cut background.)

FGFR2 (h), sequence (P21802 22-821): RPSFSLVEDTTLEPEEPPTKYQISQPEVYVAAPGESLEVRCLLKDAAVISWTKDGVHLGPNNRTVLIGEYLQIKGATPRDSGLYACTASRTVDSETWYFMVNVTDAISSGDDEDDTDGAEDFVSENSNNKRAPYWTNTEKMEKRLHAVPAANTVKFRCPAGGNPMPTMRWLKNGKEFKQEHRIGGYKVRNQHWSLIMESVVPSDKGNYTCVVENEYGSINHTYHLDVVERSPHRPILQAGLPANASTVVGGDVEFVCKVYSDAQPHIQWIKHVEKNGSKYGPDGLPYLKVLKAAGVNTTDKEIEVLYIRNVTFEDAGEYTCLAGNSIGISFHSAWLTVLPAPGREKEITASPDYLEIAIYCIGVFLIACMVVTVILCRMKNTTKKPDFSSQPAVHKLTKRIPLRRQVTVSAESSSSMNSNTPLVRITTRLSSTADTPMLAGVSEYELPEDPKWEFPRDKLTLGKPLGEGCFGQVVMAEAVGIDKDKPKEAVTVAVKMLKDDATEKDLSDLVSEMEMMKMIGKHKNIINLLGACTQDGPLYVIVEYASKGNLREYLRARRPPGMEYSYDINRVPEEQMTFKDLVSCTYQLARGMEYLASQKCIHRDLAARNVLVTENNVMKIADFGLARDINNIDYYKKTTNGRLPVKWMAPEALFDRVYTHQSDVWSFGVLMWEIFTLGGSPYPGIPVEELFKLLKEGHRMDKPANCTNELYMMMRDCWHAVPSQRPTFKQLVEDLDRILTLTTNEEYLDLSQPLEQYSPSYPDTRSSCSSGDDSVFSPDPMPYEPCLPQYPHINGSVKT
T1 sequence (P11362 whole entry, change not shown): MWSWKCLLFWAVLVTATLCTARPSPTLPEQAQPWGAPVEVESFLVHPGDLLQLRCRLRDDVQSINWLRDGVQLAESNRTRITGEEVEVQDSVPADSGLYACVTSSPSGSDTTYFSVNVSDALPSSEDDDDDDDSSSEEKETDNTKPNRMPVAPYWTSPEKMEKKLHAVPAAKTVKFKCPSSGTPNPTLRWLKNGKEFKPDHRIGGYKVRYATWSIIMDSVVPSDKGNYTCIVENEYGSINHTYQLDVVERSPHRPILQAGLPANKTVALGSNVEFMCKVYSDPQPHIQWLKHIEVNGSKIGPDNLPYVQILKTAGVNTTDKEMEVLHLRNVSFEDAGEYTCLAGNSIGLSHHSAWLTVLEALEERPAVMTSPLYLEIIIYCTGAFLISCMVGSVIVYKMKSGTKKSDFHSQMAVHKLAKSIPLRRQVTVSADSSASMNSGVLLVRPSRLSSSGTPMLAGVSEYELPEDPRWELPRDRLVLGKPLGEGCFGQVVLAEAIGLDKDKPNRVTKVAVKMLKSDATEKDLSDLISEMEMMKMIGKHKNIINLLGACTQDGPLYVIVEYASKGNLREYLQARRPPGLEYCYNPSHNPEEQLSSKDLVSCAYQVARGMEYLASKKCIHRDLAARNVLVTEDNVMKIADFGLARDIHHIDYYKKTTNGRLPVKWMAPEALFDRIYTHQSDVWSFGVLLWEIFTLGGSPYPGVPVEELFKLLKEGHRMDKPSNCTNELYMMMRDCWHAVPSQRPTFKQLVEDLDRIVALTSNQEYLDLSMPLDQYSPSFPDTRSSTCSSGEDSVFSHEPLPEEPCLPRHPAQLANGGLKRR

Turning to `COc1cc(/N=c2\ccc3ncc(-c4cnn(C)c4)nc3n2CC(C)(C)O)c(F)c(OC)c1` [Compound 246], the “BAF3-FGFR1 (MIN IL3) pIC50” value in test [1] is 7.25. In addition, the figures for the IC50 in test [2] and in test [3] were above 10 µM and 1.51 nM, respectively.
Consider `COc1cc(OC)c(F)c(N(CC(O)c2cnn(C)c2)c2ccc3ncc(-c4cnn(C)c4)nc3n2)c1` (stereo not drawn) [Compound 244], for which the “BAF3-FGFR1 (MIN IL3) pIC50” value in test [1] came out at 6.76. In addition, the results for the IC50 in test [2] and in test [3] were above 10 µM and 5.01 nM, respectively.
The matching figures for `COc1cc(OC)c(F)c(N(CC2CCC(=O)N2)c2ccc3ncc(-c4cnn(C5CNC5)c4)nc3n2)c1` (stereo not drawn) [Compound 299]: 6.05, above 10 µM and 4.68 nM.
The matching figures for `COc1cc(OC)c(F)c(N(Cc2ncc[nH]2)c2ccc3ncc(-c4cnn(CCS(C)(=O)=O)c4)nc3n2)c1` [Compound 264]: 7.66, above 10 µM and 1.86 nM.
`COc1cc(OC)c(F)c(N(CC(C)(C)O)c2ccc3ncc(-c4cnn(C)c4)nc3n2)c1` [Compound 245]: the “BAF3-FGFR1 (MIN IL3) pIC50” value in test [1] worked out at 6.86. For the same compound, the IC50 in test [2] is above 10 µM; in test [3], 4.47 nM.
On the same counts, the results for `COc1cc(OC)cc(N(Cc2ncc[nH]2)c2ccc3ncc(N4CCOCC4)nc3n2)c1` [Compound 293] are 7.59, above 10 µM and 1.82 nM.
In the case of `COc1cc(OC)cc(N(CC2CC(O)C(=O)N2)c2ccc3ncc(-c4cnn(C)c4)nc3n2)c1` (stereo not drawn) [Compound 271], the “BAF3-FGFR1 (MIN IL3) pIC50” value in test [1] is recorded as 6.02. In addition, the figures for the IC50 in test [2] and in test [3] were above 10 µM and 3.98 nM, respectively.
The matching figures for `COc1cc(OC)cc(N(Cc2c[nH]nn2)c2ccc3ncc(-c4cnn(C)c4)nc3n2)c1` [Compound 251]: 6.99, above 10 µM and 1.41 nM.
On the same counts, the results for `CCn1/c(=N/c2c(F)c(OC)cc(OC)c2F)ccc2ncc(-c3cnn(C)c3)nc21` [Compound 257] are 8.58, above 10 µM and 1.35 nM.
The matching figures for `COc1cc(/N=c2\ccc3ncc(-c4cnn(C)c4)nc3n2CC2CC(O)C(=O)N2)cc(OC)c1` (stereo not drawn) [Compound 272]: 6.54, above 10 µM and 2.57 nM.
As to `COc1cc(OC)c(F)c(N(Cc2ncc[nH]2)c2ccc3ncc(N4C[C@@H](C)N[C@@H](C)C4)nc3n2)c1` [Compound 259], in test [1], the “BAF3-FGFR1 (MIN IL3) pIC50” value was determined as 7.33. The IC50 is above 10 µM in test [2] and 2.88 nM in test [3].
The matching figures for `COc1cc(OC)cc(N(c2ccc3ncc(-c4cnn(C)c4)nc3n2)C(C)c2ncc[nH]2)c1` (stereo not drawn) [Compound 280]: 8.64, above 10 µM and 2.04 nM.
On the same counts, the results for `COc1cc(/N=c2\ccc3ncc(-c4cnn(C)c4)nc3n2CC(C)(C)O)cc(OC)c1` [Compound 277] are 6.91, above 10 µM and 2.09 nM.
On the same counts, the results for `COc1cc(OC)c(F)c(N(CC2CC(O)C(=O)N2)c2ccc3ncc(-c4cnn(C)c4)nc3n2)c1` (stereo not drawn) [Compound 269] are 6.72, above 10 µM and 3.24 nM.
On to `COc1cc(/N=c2\ccc3ncc(-c4cnn(CC(C)(C)O)c4)nc3n2CC2CCC(=O)N2)c(F)c(OC)c1` (stereo not drawn) [Compound 286], for which the “BAF3-FGFR1 (MIN IL3) pIC50” value in test [1] was 7.07. For the same compound, the figures for the IC50 in test [2] and in test [3] were above 10 µM and 2.04 nM, respectively.
On the same counts, the results for `COc1cc(OC)cc(N(CC(C)(C)O)c2ccc3ncc(-c4cnn(C)c4)nc3n2)c1` [Compound 276] are 6.28, above 10 µM and 9.12 nM.
On the same counts, the results for `COc1cc(/N=c2\ccc3ncc(-c4cnn(C)c4)nc3n2CC2CCC(=O)N2CCO)c(F)c(OC)c1` (stereo not drawn) [Compound 247] are 7.51, above 10 µM and 2.34 nM.
Take `COc1cc(OC)c(F)c(N(c2ccc3ncc(-c4cnn(C)c4)nc3n2)C(C)c2ncc[nH]2)c1` (stereo not drawn) [Compound 287]: the “BAF3-FGFR1 (MIN IL3) pIC50” value in test [1] was found to be 8.87. The IC50 in test [2] was above 10 µM; in test [3] it was 3.09 nM.
For `COc1cc(OC)c(F)c(N(Cc2c[nH]nn2)c2ccc3ncc(-c4cnn(C)c4)nc3n2)c1` [Compound 258], in test [1], the “BAF3-FGFR1 (MIN IL3) pIC50” value came to 7.38. The IC50 in test [2] was above 10 µM; in test [3], 1.45 nM.
The matching figures for `COc1cc(OC)c(F)c(N(Cc2ncc[nH]2)c2ccc3ncc(-c4cnn(C5COC5)c4)nc3n2)c1` [Compound 253]: 8.61, above 10 µM and 1.82 nM.
The matching figures for `COc1cc(OC)c(F)c(N(CC(=O)NC(C)C)c2ccc3ncc(-c4cnn(C)c4)nc3n2)c1` [Compound 249]: 6.70, above 10 µM and 4.79 nM.
On the same counts, the results for `COc1cc(OC)cc(N(CC(O)COC(C)C)c2ccc3ncc(-c4cnn(CC(O)COC(C)C)c4)nc3n2)c1` (stereo not drawn) [Compound 250] are 6.45, above 10 µM and 6.03 nM.
For the compound `COc1cc(OC)c(F)c(N(CC2CC2)c2ccc3ncc(-c4cnn(C)c4)nc3n2)c1F` (single isomer, unassigned) [Compound 268], the “BAF3-FGFR1 (MIN IL3) pIC50” value in test [1] turned out to be 7.44. The figures for the IC50 in test [2] and in test [3] were above 10 µM and 2.82 nM, respectively.
The matching figures for `COc1cc(OC)c(F)c(N(Cc2ncc[nH]2)c2ccc3ncc(-c4cnn(CCCN)c4)nc3n2)c1` [Compound 295]: 8.47, above 10 µM and 1.74 nM.
As to `COc1cc(OC)c(F)c(N(CC(C)(C)O)c2ccc3ncc(-c4cnn(C)c4)nc3n2)c1F` [Compound 278], the “BAF3-FGFR1 (MIN IL3) pIC50” value in test [1] was 7.45. Moreover, the IC50 in test [2] was above 10 µM; in test [3] it was 4.17 nM.
On the same counts, the results for `COc1cc(OC)c(F)c(N(Cc2noc(C)n2)c2ccc3ncc(-c4cnn(C)c4)nc3n2)c1` [Compound 297] are 7.70, above 10 µM and 1.78 nM.
The matching figures for `COc1cc(OC)cc(N(CCNC2COC2)c2ccc3ncc(-c4cnn(C)c4)nc3n2)c1` [Compound 290]: 7.09, above 10 µM and 4.47 nM.
`COc1cc(OC)c(C)c(N(Cc2ncc[nH]2)c2ccc3ncc(-c4cnn(C)c4)nc3n2)c1` [Compound 273]: the “BAF3-FGFR1 (MIN IL3) pIC50” value in test [1] came out at 8.44. The IC50 in test [2] is above 10 µM; in test [3], 3.8 nM.
On the same counts, the results for `COc1cc(OC)c(F)c(N(CC2CCC(=O)N2)c2ccc3ncc(-c4cnn(CC(C)(C)O)c4)nc3n2)c1` (stereo not drawn) [Compound 285] are 6.38, above 10 µM and 4.07 nM.
On the same counts, the results for `COc1cc(OC)c(F)c(N(Cc2ncc[nH]2)c2ccc3ncc(N4CCOCC4)nc3n2)c1` [Compound 291] are 8.03, above 10 µM and 1.55 nM.
